# Test system: IL-1β production in PMA-differentiated THP-1 cells
# Assay: IL-1β production in PMA-differentiated THP-1 cells stimulated with gramicidin (hTHP-1 assay containing 2% fetal bovine serum)
# Format: cell-based, human
# Details: Table B1; 2% fetal bovine serum; class symbols; read-out: hTHP-1 IC50 (Average IC50 of compounds in hTHP-1 assay)
# Outline: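 IL-1β release was read by HTRF on supernatants of 50,000 PMA-primed (20 ng/ml, 16-18 h) THP-1 cells/well in 2% FBS medium. Cells saw compound for 1 h (11-point titration from 100 μM, 0.37% DMSO) before a 2 h gramicidin (5 μM) challenge.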
row,Structure (SMILES),IC50
1,"COCc1cc(C(C)C)c(CC(=O)N=S(N)(=O)c2cc(C(C)(C)O)cs2)c(C(C)C)c1 (single isomer, unassigned) [Example 157, (R) or (S)-N-(amino(4-(2-hydroxypropan-2-yl)thiophen-2-yl)(oxo)-λ^6-sulfaneylidene)-2-(2,6-diisopropyl-4-(methoxymethyl)phenyl)acetamide]",0.008 to 0.04 µM
2,"COCc1cc(C(C)C)c(CC(=O)N=S(N)(=O)c2cc(C(C)(C)O)cs2)c(C(C)C)c1 (single isomer, unassigned) [Example 158, (S) or (R)-N-(amino(4-(2-hydroxypropan-2-yl)thiophen-2-yl)(oxo)-λ^6-sulfaneylidene)-2-(2,6-diisopropyl-4-(methoxymethyl)phenyl)acetamide]",1 to 5 µM
3,"CC(C)c1ccc(F)c(C(C)C)c1CC(=O)N=S(N)(=O)c1cc(C(C)(C)O)cs1 (single isomer, unassigned) [Example 159, (R) or (S)-N-(amino(4-(2-hydroxypropan-2-yl)thiophen-2-yl)(oxo)-λ^6-sulfaneylidene)-2-(3-fluoro-2,6-diisopropylphenyl) acetamide]",0.04 to 0.2 µM
4,"CC(C)c1cc(-c2ccc3ccccc3c2)cc(C(C)C)c1CC(=O)N=S(N)(=O)c1cnc(C(C)(C)O)s1 (single isomer, unassigned) [Example 164, (S) or (R)-N-(amino(2-(2-hydroxypropan-2-yl)thiazol-5-yl)(oxo)-λ^6-sulfaneylidene)-2-(2,6-diisopropyl-4-(naphthalen-2-yl)phenyl) acetamide]",1 to 5 µM
5,"CC(C)c1cc(-c2ccc3c(c2)OC(F)(F)O3)cc(C(C)C)c1CC(=O)N=S(N)(=O)c1ncc(C(C)(C)O)s1 (single isomer, unassigned) [Example 165, (S) or (R)-N-(amino(5-(2-hydroxypropan-2-yl)thiazol-2-yl)(oxo)-λ^6-sulfaneylidene)-2-(4-(2,2-difluorobenzo[d] [1,3]dioxol-5-yl)-2,6-diisopropylphenyl) acetamide]",1 to 5 µM
6,"CC(C)c1cc(-c2ccc3c(c2)OC(F)(F)O3)cc(C(C)C)c1CC(=O)N=S(N)(=O)c1ncc(C(C)(C)O)s1 (single isomer, unassigned) [Example 166, (R) or (S)-N-(amino(5-(2-hydroxypropan-2-yl)thiazol-2-yl)(oxo)-λ^6-sulfaneylidene)-2-(4-(2,2-difluorobenzo[d] [1,3]dioxol-5-yl)-2,6-diisopropylphenyl) acetamide]",0.04 to 0.2 µM
7,"Cc1ccc(-c2cc(C(C)C)c(CC(=O)N=S(N)(=O)c3ncc(C(C)(C)O)s3)c(C(C)C)c2)cc1C (single isomer, unassigned) [Example 167, (S) or (R)-N-(amino(5-(2-hydroxypropan-2-yl)thiazol-2-yl)(oxo)-λ^6-sulfaneylidene)-2-(3,5-diisopropyl-3′,4′-dimethyl-[1,1′-biphenyl]-4-yl)acetamide]",1 to 5 µM
8,"Cc1ccc(-c2cc(C(C)C)c(CC(=O)N=S(N)(=O)c3ncc(C(C)(C)O)s3)c(C(C)C)c2)cc1C (single isomer, unassigned) [Example 168, (R) or (S)-N-(amino(5-(2-hydroxypropan-2-yl)thiazol-2-yl)(oxo)-λ^6-sulfaneylidene)-2-(3,5-diisopropyl-3′,4'-dimethyl-[1,1′-biphenyl]-4-yl)acetamide]",0.2 to 1 µM
9,"CC(C)c1cc(-c2ccc(Cl)c(Cl)c2)cc(C(C)C)c1CC(=O)N=S(N)(=O)c1ncc(C(C)(C)O)s1 (single isomer, unassigned) [Example 169, (S) or (R)-N-(amino(5-(2-hydroxypropan-2-yl)thiazol-2-yl)(oxo)-λ^6-sulfaneylidene)-2-(3′,4′-dichloro-3,5-diisopropyl-[1,1′-biphenyl]-4-yl)acetamide]",1 to 5 µM
10,"CC(C)c1cc(-c2ccc3c(c2)COCC3)cc(C(C)C)c1CC(=O)N=S(N)(=O)c1cnc(C(C)(C)O)s1 (single isomer, unassigned) [Example 171, (R) or (S)-N-(amino(2-(2-hydroxypropan-2-yl)thiazol-5-yl)(oxo)-λ^6-sulfaneylidene)-2-(4-(isochroman-7-yl)-2,6-diisopropylphenyl) acetamide]",0.2 to 1 µM
11,"Cc1sc(S(N)(=O)=NC(=O)Cc2c(C(C)C)ccc(F)c2C(C)C)cc1C(C)(C)O (single isomer, unassigned) [Example 173, (R) or (S)-N-(amino(4-(2-hydroxypropan-2-yl)-5-methylthiophen-2-yl)(oxo)-λ^6-sulfaneylidene)-2-(3-fluoro-2,6-diisopropylphenyl) acetamide]",0.2 to 1 µM
12,"Cc1sc(S(N)(=O)=NC(=O)Cc2c(C(C)C)ccc(F)c2C(C)C)cc1C(C)(C)O (single isomer, unassigned) [Example 174, (S) or (R)-N-(amino(4-(2-hydroxypropan-2-yl)-5-methylthiophen-2-yl)(oxo)-λ^6-sulfaneylidene)-2-(3-fluoro-2,6-diisopropylphenyl) acetamide]",5 to 30 µM
13,"CC(C)c1ccc(F)c(C(C)C)c1CC(=O)N=S(N)(=O)c1ccc(C(C)(C)O)s1 (single isomer, unassigned) [Example 176, (R) or (S)-N-(amino(5-(2-hydroxypropan-2-yl)thiophen-2-yl)(oxo)-λ^6-sulfaneylidene)-2-(3-fluoro-2,6-diisopropylphenyl) acetamide]",0.2 to 1 µM
14,"CC(C)c1cc(F)c(F)c(C(C)C)c1CC(=O)N=S(N)(=O)c1nc(C(C)(C)O)cs1 (single isomer, unassigned) [Example 177, (R) or (S)-N-(amino(4-(2-hydroxypropan-2-yl)thiazol-2-yl)(oxo)-λ^6-sulfaneylidene)-2-(3,4-difluoro-2,6-diisopropylphenyl) acetamide]",0.04 to 0.2 µM

# The remaining lines, values ahead:
row,IC50,Structure (SMILES)
1,0.04 to 0.2 µM,"Cc1nc(C(C)(C)O)sc1S(N)(=O)=NC(=O)Cc1c(C(C)C)cc(OC(F)F)cc1C(C)C (single isomer, unassigned) [Example 84, (S)- or (R)-2-(4-(difluoromethoxy)-2,6-diisopropylphenyl)-N-(2-(2-hydroxypropan-2-yl)-4-methylthiazol-5-ylsulfonimidoyl)acetamide]"
2,5 to 30 µM,"Cc1nc(C(C)(C)O)sc1S(N)(=O)=NC(=O)Cc1c(C(C)C)cc(OC(F)F)cc1C(C)C (single isomer, unassigned) [Example 85, (R)- or (S)-2-(4-(difluoromethoxy)-2,6-diisopropylphenyl)-N-(2-(2-hydroxypropan-2-yl)-4-methylthiazol-5-ylsulfonimidoyl)acetamide]"
3,1 to 5 µM,"CC(C)c1cc(C(F)F)cc(C(C)C)c1CC(=O)N=S(N)(=O)c1ccc(C(C)(C)O)cc1F (single isomer, unassigned) [Example 86, (S)- or (R)-2-(4-(difluoromethyl)-2,6-diisopropylphenyl)-N-(2-fluoro-4-(2-hydroxypropan-2-yl)phenylsulfonimidoyl) acetamide]"
4,0.04 to 0.2 µM,"CC(C)c1cc(C(F)F)cc(C(C)C)c1CC(=O)N=S(N)(=O)c1ccc(C(C)(C)O)cc1F (single isomer, unassigned) [Example 87, (R)- or (S)-2-(4-(difluoromethyl)-2,6-diisopropylphenyl)-N-(2-fluoro-4-(2-hydroxypropan-2-yl)phenylsulfonimidoyl) acetamide]"
5,0.2 to 1 µM,"CC(C)c1ccc(F)c(C(C)C)c1CC(=O)N=S(N)(=O)c1cc(C(C)(C)O)cs1 (single isomer, unassigned) [Example 160, (S) or (R)-N-(amino(4-(2-hydroxypropan-2-yl)thiophen-2-yl)(oxo)-λ^6-sulfaneylidene)-2-(3-fluoro-2,6-diisopropylphenyl) acetamide]"
6,0.04 to 0.2 µM,"CC(C)c1ccc(F)c(C(C)C)c1CC(=O)N=S(N)(=O)c1cnc(C(C)(C)O)s1 (single isomer, unassigned) [Example 161, (R) or (S)-N-(amino(2-(2-hydroxypropan-2-yl)thiazol-5-yl)(oxo)-λ^6-sulfaneylidene)-2-(3-fluoro-2,6-diisopropylphenyl) acetamide]"
7,5 to 30 µM,"CC(C)c1ccc(F)c(C(C)C)c1CC(=O)N=S(N)(=O)c1cnc(C(C)(C)O)s1 (single isomer, unassigned) [Example 162, (S) or (R)-N-(amino(2-(2-hydroxypropan-2-yl)thiazol-5-yl)(oxo)-λ^6-sulfaneylidene)-2-(3-fluoro-2,6-diisopropylphenyl) acetamide]"
8,0.04 to 0.2 µM,"CC(C)c1cc(-c2ccc3ccccc3c2)cc(C(C)C)c1CC(=O)N=S(N)(=O)c1cnc(C(C)(C)O)s1 (single isomer, unassigned) [Example 163, (R) or (S)-N-(amino(2-(2-hydroxypropan-2-yl)thiazol-5-yl)(oxo)-λ^6-sulfaneylidene)-2-(2,6-diisopropyl-4-(naphthalen-2-yl)phenyl) acetamide]"
9,0.2 to 1 µM,"CC(C)c1cc(-c2ccc(Cl)c(Cl)c2)cc(C(C)C)c1CC(=O)N=S(N)(=O)c1ncc(C(C)(C)O)s1 (single isomer, unassigned) [Example 170, (R) or (S)-N-(amino(5-(2-hydroxypropan-2-yl)thiazol-2-yl)(oxo)-λ^6-sulfaneylidene)-2-(3′,4′-dichloro-3,5-diisopropyl-[1,1′-biphenyl]-4-yl)acetamide]"
10,5 to 30 µM,"CC(C)c1cc(-c2ccc3c(c2)COCC3)cc(C(C)C)c1CC(=O)N=S(N)(=O)c1cnc(C(C)(C)O)s1 (single isomer, unassigned) [Example 172, (S) or (R)-N-(amino(2-(2-hydroxypropan-2-yl)thiazol-5-yl)(oxo)-λ^6-sulfaneylidene)-2-(4-(isochroman-7-yl)-2,6-diisopropylphenyl) acetamide]"
11,1 to 5 µM,"CC(C)c1ccc(F)c(C(C)C)c1CC(=O)N=S(N)(=O)c1ccc(C(C)(C)O)s1 (single isomer, unassigned) [Example 175, (S) or (R)-N-(amino(5-(2-hydroxypropan-2-yl)thiophen-2-yl)(oxo)-λ^6-sulfaneylidene)-2-(3-fluoro-2,6-diisopropylphenyl) acetamide]"

# Reference: US20230059136A1, “THE COMPOUNDS AND COMPOSITIONS FOR TREATING CONDITIONS ASSOCIATED WITH NLRP ACTIVITY” (Novartis AG, priority 2018, published 2023)
